# Experimental data: patent US20190262330A1, “Method of Treating Hepatocellular Carcinoma Using N-(4-(6,7-dimethoxyquinolin-4-yloxy)phenyl)-N′-(4-fluorophenyl)cyclopropane-1,1-dicarboxamide, (2S)-hydroxybutanedioate” (Exelixis, Inc., priority 2017, published 2019)
# Target: CYP2A6 (Homo sapiens, UniProt P11509)
# Assay: In vitro metabolic pathways
# Format: in vitro ADME
# Sequence of CYP2A6 (P11509 whole entry): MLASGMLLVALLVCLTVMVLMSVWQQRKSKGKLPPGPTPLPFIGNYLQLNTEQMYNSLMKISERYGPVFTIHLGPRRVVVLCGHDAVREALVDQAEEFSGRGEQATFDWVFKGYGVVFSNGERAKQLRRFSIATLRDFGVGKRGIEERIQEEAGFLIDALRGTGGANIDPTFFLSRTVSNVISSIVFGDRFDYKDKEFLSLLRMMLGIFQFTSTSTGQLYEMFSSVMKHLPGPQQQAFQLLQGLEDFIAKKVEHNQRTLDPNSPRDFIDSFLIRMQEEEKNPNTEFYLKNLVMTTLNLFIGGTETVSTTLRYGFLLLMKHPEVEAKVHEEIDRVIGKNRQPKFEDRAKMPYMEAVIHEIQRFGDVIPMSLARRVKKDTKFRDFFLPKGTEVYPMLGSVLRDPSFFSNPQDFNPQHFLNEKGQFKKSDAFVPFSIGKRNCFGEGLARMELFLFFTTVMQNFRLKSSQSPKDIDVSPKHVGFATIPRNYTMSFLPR
smiles,measurement,value
COc1cc2nccc(Oc3ccc(NC(=O)C4(C(=O)Nc5ccc(F)cc5)CC4)cc3)c2cc1OC [cabozantinib],Effect of inhibition of CYP2A6 on metabolite formation,no effect
